Measurements reported in patent publication US20140228682A1, “IMAGING PROBES, IMAGING SYSTEMS, AND METHODS OF IMAGING” (priority 2013, published 2014).

Columns and labels:
[1] = tested on: cartilage; assay: small animal PET imaging of cartilage / osteoarthritis joints in mice; assay type: in vivo
Description: The mice were injected with ^89Zirconium oxalate through tail vein and then imaged by small animal PET.
(§1) The mice were injected with tracer through tail vein and then imaged at 5 days post-injection by small animal PET (left two columns of images) and optical imaging instrument (in vivo and ex vivo) (right two columns images).

[2] = tested on: cartilage; assay: optical (Cerenkov) imaging of joints in mice, in vivo and ex vivo; conditions: FIG. 3, tail vein injection, 5 days post-injection, optical imaging instrument (in vivo and ex vivo)
Description: as §1

[3] = FIG. 3, tail vein injection, 5 days post-injection

Substance: ^89Zr oxalate
- signal in OA joints ([1]; FIG. 2, tail vein injection): low signal
- signal in sham and untreated joints ([1]; FIG. 2, tail vein injection): high signal
- signal in OA joints [1, 3]: low signal
- signal in sham and untreated joints [1, 3]: high signal
- signal in OA joints [2]: low signal
- signal in sham and untreated joints [2]: high signal
